Values of other authors as cited in patent US20250064831A1 (Acerus Biopharma Inc., priority 2012, published 2025).

Experiments:
[1] = in vivo
[2] = polyethylene glycol (200 mg/ml), high variations
[3] = progesterone/cyclodextrin powder mixtures, nasal

SMILES: CN(C)CC(=O)O[C@H]1CC[C@H]2[C@@H]3CCC4=CC(=O)CC[C@]4(C)[C@H]3CC[C@]12C [testosterone 17β-N,N-dimethylglycinate]
- elimination half-lives [1]: about 55 min

SMILES: CC(=O)[C@H]1CC[C@H]2[C@@H]3CCC4=CC(=O)CC[C@]4(C)[C@H]3CC[C@]12C [progesterone]
- duration of serum level [2]: at least 8 hours
- serum level decrease [3]: ≤ 20 min
